# Compound: T1, CCOc1cc2ncc(C#N)c(Nc3ccc(OCc4ccccn4)c(Cl)c3)c2cc1NC(=O)/C=C/CN(C)C [Neratinib/HKI272]
# Assay: GR value, 72 h; higher = faster growth (1 = untreated, <0 = killing);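 further: breast cancer and non-malignant breast epithelial lines, nine half-log doses, viable cells counted by Hoechst and LIVE/DEAD dye imaging versus time-zero plates and DMSO controls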
# Settings: 0.0003162 µM
row,Cell Line,GR value [GR]
1,CAMA1,1.08
2,EFM19,1.07
3,EVSAT,0.99
4,HCC38,1.02
5,HCC70,1.04

# Same assay, conditions: 0.001 µM
row,Cell Line,GR value [GR]
1,CAMA1,1.01
2,EFM19,1.12
3,EVSAT,1.02
4,HCC38,1.03
5,HCC70,0.943

# Same assay, conditions: 0.003162 µM
row,Cell Line,GR value [GR]
1,CAMA1,1.01
2,EFM19,1.12
3,EVSAT,1.01
4,HCC38,0.987
5,HCC70,1.02

# Same assay, conditions: 0.01 µM
row,Cell Line,GR value [GR]
1,CAMA1,0.989
2,EFM19,1.05
3,EVSAT,0.991
4,HCC38,0.96
5,HCC70,0.986

# Same assay, conditions: 0.03162 µM
row,Cell Line,GR value [GR]
1,CAMA1,1
2,EFM19,1.06
3,EVSAT,0.978
4,HCC38,0.879
5,HCC70,0.79

# Same assay, conditions: 0.1 µM
row,Cell Line,GR value [GR]
1,CAMA1,0.993
2,EFM19,1.03
3,EVSAT,0.909
4,HCC38,0.951
5,HCC70,0.621

# Same assay, conditions: 0.3162 µM
row,Cell Line,GR value [GR]
1,CAMA1,0.949
2,EFM19,0.933
3,EVSAT,0.895
4,HCC38,0.823
5,HCC70,0.377

# Same assay, conditions: 1 µM
row,Cell Line,GR value [GR]
1,CAMA1,0.837
2,EFM19,0.811
3,EVSAT,0.822
4,HCC38,0.846
5,HCC70,0.128

# Same assay, conditions: 3.162 µM
row,Cell Line,GR value [GR]
1,CAMA1,0.455
2,EFM19,0.688
3,EVSAT,0.676
4,HCC38,0.456
5,HCC70,0.0733

# Compound: CN(C)C/C=C/C(=O)Nc1ccc(C(=O)Nc2cccc(Nc3ncc(Cl)c(-c4c[nH]c5ccccc45)n3)c2)cc1 [THZ1]
# Assay: as above
# Settings: 0.0001 µM
row,Cell Line,GR value [GR]
1,CAMA1,0.892
2,EFM19,0.946
3,EVSAT,1.02
4,HCC38,1.1
5,HCC70,0.985

# Same assay, conditions: 0.0003162 µM
row,Cell Line,GR value [GR]
1,CAMA1,0.979
2,EFM19,1.1
3,EVSAT,0.993
4,HCC38,1.05
5,HCC70,1.01

# Same assay, conditions: 0.001 µM
row,Cell Line,GR value [GR]
1,CAMA1,0.758
2,EFM19,1.04
3,EVSAT,0.991
4,HCC38,1.05
5,HCC70,1.04

# Same assay, conditions: 0.003162 µM
row,Cell Line,GR value [GR]
1,CAMA1,0.755
2,EFM19,0.932
3,EVSAT,0.946
4,HCC38,0.951
5,HCC70,1.02

# Same assay, conditions: 0.01 µM
row,Cell Line,GR value [GR]
1,CAMA1,0.615
2,EFM19,1.01
3,EVSAT,0.975
4,HCC38,0.724
5,HCC70,0.707

# Same assay, conditions: 0.03162 µM
row,Cell Line,GR value [GR]
1,CAMA1,0.549
2,EFM19,0.922
3,EVSAT,0.705
4,HCC38,0.452
5,HCC70,-0.291

# Same assay, conditions: 0.1 µM
row,Cell Line,GR value [GR]
1,CAMA1,0.208
2,EFM19,0.86
3,EVSAT,0.232
4,HCC38,-0.224
5,HCC70,-0.838

# Same assay, conditions: 0.3162 µM
row,Cell Line,GR value [GR]
1,CAMA1,-0.0416
2,EFM19,0.69
3,EVSAT,-0.363
4,HCC38,-0.367
5,HCC70,-0.936

# Same assay, conditions: 1 µM
row,Cell Line,GR value [GR]
1,CAMA1,-0.467
2,EFM19,-0.299
3,HCC38,-0.572
4,HCC70,-0.944

# Compound: CCN1CCN(Cc2ccc(Nc3ncc(F)c(-c4cc(F)c5nc(C)n(C(C)C)c5c4)n3)nc2)CC1
# Assay: increase in dead-cell fraction, 72 h; higher = more death;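 further: breast cancer cell lines in 384-well plates, stained with Hoechst plus LIVE/DEAD far red dye and imaged, cells above an LDR intensity threshold counted dead, Hoechst-negative corpses included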
# Settings: 0.001 µM
row,Cell Line,increase in dead-cell fraction
1,CAMA1,-0.0054
2,EFM19,-0.0101
3,EVSAT,-0.0003
4,HCC38,0.0177
5,HCC70,0.0027

# Same assay, conditions: 0.003162 µM
row,Cell Line,increase in dead-cell fraction
1,CAMA1,-0.0135
2,EFM19,-0.0007
3,EVSAT,-0.0008
4,HCC38,0.0096
5,HCC70,-0.0178

# Same assay, conditions: 0.01 µM
row,Cell Line,increase in dead-cell fraction
1,CAMA1,-0.0075
2,EFM19,0.0035
3,EVSAT,-0.0013
4,HCC38,0.0258
5,HCC70,-0.0021

# Same assay, conditions: 0.03162 µM
row,Cell Line,increase in dead-cell fraction
1,CAMA1,-0.0084
2,EFM19,0.0136
3,EVSAT,0.0044
4,HCC38,0.0545
5,HCC70,-0.0067

# Same assay, conditions: 0.1 µM
row,Cell Line,increase in dead-cell fraction
1,CAMA1,0.0035
2,EFM19,0.0179
3,EVSAT,0.0048
4,HCC38,0.0758
5,HCC70,-0.0175

# Same assay, conditions: 0.3162 µM
row,Cell Line,increase in dead-cell fraction
1,CAMA1,-0.0078
2,EFM19,0.0249
3,EVSAT,0.0122
4,HCC38,0.0601
5,HCC70,-0.0179

# Same assay, conditions: 1 µM
row,Cell Line,increase in dead-cell fraction
1,CAMA1,-0.0025
2,EFM19,0.0149
3,EVSAT,0.0226
4,HCC38,0.0699
5,HCC70,-0.0058

# Same assay, conditions: 3.162 µM
row,Cell Line,increase in dead-cell fraction
1,CAMA1,-0.0084
2,EFM19,0.0183
3,EVSAT,0.0299
4,HCC38,0.0988
5,HCC70,0.169

# Same assay, conditions: 10 µM
row,Cell Line,increase in dead-cell fraction
1,CAMA1,0.0143
2,EFM19,0.0445
3,EVSAT,0.798
4,HCC38,0.415
5,HCC70,0.639

# Compound: T1, Neratinib/HKI272
# Assay: as above
# Settings: 0.0003162 µM
row,Cell Line,increase in dead-cell fraction
1,CAMA1,0.0013
2,EFM19,-0.0049
3,EVSAT,-0.0012
4,HCC38,0.0178
5,HCC70,0.0098

# Same assay, conditions: 0.001 µM
row,Cell Line,increase in dead-cell fraction
1,CAMA1,0.0021
2,EFM19,-0.0044
3,EVSAT,-0.002
4,HCC38,0.006
5,HCC70,0.0142

# Same assay, conditions: 0.003162 µM
row,Cell Line,increase in dead-cell fraction
1,CAMA1,-0.0002
2,EFM19,-0.0012
3,EVSAT,-0.0011
4,HCC38,0.0166
5,HCC70,0.015

# Same assay, conditions: 0.01 µM
row,Cell Line,increase in dead-cell fraction
1,CAMA1,0.0022
2,EFM19,-0.0052
3,EVSAT,-0.0031
4,HCC38,0.0088
5,HCC70,0.0157

# Same assay, conditions: 0.03162 µM
row,Cell Line,increase in dead-cell fraction
1,CAMA1,0.0081
2,EFM19,-0.0028
3,EVSAT,-0.0026
4,HCC38,0.0102
5,HCC70,0.0249

# Same assay, conditions: 0.1 µM
row,Cell Line,increase in dead-cell fraction
1,CAMA1,0.0011
2,EFM19,-0.0038
3,EVSAT,-0.0027
4,HCC38,-0.0035
5,HCC70,0.0312

# Same assay, conditions: 0.3162 µM
row,Cell Line,increase in dead-cell fraction
1,CAMA1,0.0067
2,EFM19,-0.0011
3,EVSAT,-0.002
4,HCC38,0.0102
5,HCC70,0.0482

# Same assay, conditions: 1 µM
row,Cell Line,increase in dead-cell fraction
1,CAMA1,0.0021
2,EFM19,-0.0033
3,EVSAT,0.0019
4,HCC38,0.0009
5,HCC70,0.0703

# Same assay, conditions: 3.162 µM
row,Cell Line,increase in dead-cell fraction
1,CAMA1,0.0342
2,EFM19,0.0028
3,EVSAT,0.0083
4,HCC38,0.0842
5,HCC70,0.147

# Compound: CC(=O)c1c(C)c2cnc(Nc3ccc(N4CCN(CCOCCOCCOCCNC(=O)COc5cccc6c5C(=O)N(C5CCC(=O)NC5=O)C6=O)CC4)cn3)nc2n(C2CCCC2)c1=O [BSJ-03-123]
# Assay: as above
# Settings: 0.001 µM
row,Cell Line,increase in dead-cell fraction
1,CAMA1,-0.0067
2,EFM19,-0.0051
3,EVSAT,-0.0001
4,HCC38,0.0173
5,HCC70,-0.0022

# Same assay, conditions: 0.003162 µM
row,Cell Line,increase in dead-cell fraction
1,CAMA1,-0.0023
2,EFM19,-0.0117
3,EVSAT,0.0011
4,HCC38,0.0254
5,HCC70,-0.0076

# Same assay, conditions: 0.01 µM
row,Cell Line,increase in dead-cell fraction
1,CAMA1,0.0007
2,EFM19,0.001
3,EVSAT,0.0093
4,HCC38,0.0387
5,HCC70,-0.0082

# Same assay, conditions: 0.03162 µM
row,Cell Line,increase in dead-cell fraction
1,CAMA1,-0.0025
2,EFM19,0.0013
3,EVSAT,0.0004
4,HCC38,0.0378
5,HCC70,-0.0024

# Same assay, conditions: 0.1 µM
row,Cell Line,increase in dead-cell fraction
1,CAMA1,0.0035
2,EFM19,-0.0048
3,EVSAT,0.0074
4,HCC38,0.0296
5,HCC70,0.0042

# Same assay, conditions: 0.3162 µM
row,Cell Line,increase in dead-cell fraction
1,CAMA1,-0.0021
2,EFM19,-0.0048
3,EVSAT,-0.0005
4,HCC38,0.0344
5,HCC70,-0.0019

# Same assay, conditions: 1 µM
row,Cell Line,increase in dead-cell fraction
1,CAMA1,0.0045
2,EFM19,0.009
3,EVSAT,0.0163
4,HCC38,0.0408
5,HCC70,-0.0038

# Same assay, conditions: 3.162 µM
row,Cell Line,increase in dead-cell fraction
1,CAMA1,-0.0077
2,EFM19,0.0049
3,EVSAT,0.0309
4,HCC38,0.0384
5,HCC70,0.0046

# Same assay, conditions: 10 µM
row,Cell Line,increase in dead-cell fraction
1,CAMA1,0.0255
2,EFM19,0.0309
3,EVSAT,0.221
4,HCC38,0.172
5,HCC70,0.317

# Compound: CC(=O)c1c(C)c2cnc(Nc3ccc(N4CCNCC4)cn3)nc2n(C2CCCC2)c1=O
# Assay: as above
# Settings: 0.0003162 µM
row,Cell Line,increase in dead-cell fraction
1,CAMA1,-0.0052
2,EFM19,-0.0086
3,EVSAT,0.0003
4,HCC38,0.0028
5,HCC70,-0.0042

# Same assay, conditions: 0.001 µM
row,Cell Line,increase in dead-cell fraction
1,CAMA1,0.0045
2,EFM19,-0.0086
3,EVSAT,-0.0039
4,HCC38,-0.0069
5,HCC70,0.0102

# Same assay, conditions: 0.003162 µM
row,Cell Line,increase in dead-cell fraction
1,CAMA1,-0.006
2,EFM19,-0.0036
3,EVSAT,-0.002
4,HCC38,0.0044
5,HCC70,-0.0045

# Same assay, conditions: 0.01 µM
row,Cell Line,increase in dead-cell fraction
1,CAMA1,-0.0044
2,EFM19,-0.0059
3,EVSAT,-0.0026
4,HCC38,0.0202
5,HCC70,0.0054

# Same assay, conditions: 0.03162 µM
row,Cell Line,increase in dead-cell fraction
1,CAMA1,-0.0065
2,EFM19,-0.0024
3,EVSAT,0.0033
4,HCC38,0.0549
5,HCC70,-0.0062

# Same assay, conditions: 0.1 µM
row,Cell Line,increase in dead-cell fraction
1,CAMA1,-0.0028
2,EFM19,-0.0087
3,EVSAT,0.0048
4,HCC38,0.0669
5,HCC70,0.012

# Same assay, conditions: 0.3162 µM
row,Cell Line,increase in dead-cell fraction
1,CAMA1,0.0013
2,EFM19,0.0108
3,EVSAT,0.0108
4,HCC38,0.0676
5,HCC70,-0.0151

# Same assay, conditions: 1 µM
row,Cell Line,increase in dead-cell fraction
1,CAMA1,0
2,EFM19,0.0355
3,EVSAT,0.0176
4,HCC38,0.0915
5,HCC70,-0.0002

# Same assay, conditions: 3.162 µM
row,Cell Line,increase in dead-cell fraction
1,CAMA1,-0.0024
2,EFM19,0.0448
3,EVSAT,0.0205
